From paper PMC10557067, “Preclinical characterization of tunlametinib, a novel, potent, and selective MEK inhibitor” (Frontiers in Pharmacology, 2023)

Columns and labels:
MEK1/MAP2K1(h) = MEK1/MAP2K1(h) (Homo sapiens, UniProt Q02750); assay: MEK1 inhibition, comparison of tunlametinib and MEK162 (Caliper EZ Reader)
Protocol: Kinase inhibition activity against MEK1 was conducted in Cerep (France) and Sundia (Shanghai, China).
The signals were measured using Caliper EZ Reader and the data were analyzed.

MEK2 kinase = target: MEK2 kinase; set-up: method as in Iverson et al., 2009; conditions: ref Iverson et al., 2009; cited from earlier work
MEK1 kinase = target: MEK1 kinase; set-up: method as in Iverson et al., 2009; conditions: ref Iverson et al., 2009; cited from earlier work
COLO 205 cells = assay: Apoptosis assay by flow cytometry; conditions: 48 h, control 21.9%
Protocol: (§1) Cell lines were inoculated at the density of 2×10^4 cells per well in a 6-well plate and cultured overnight. […] The cell cycle or apoptosis analysis was performed by flow cytometry.
(§2) Tumor cell lines were inoculated in 6-well plates at a density of 2×10^4 cells/well. […] Both apoptosis and cell cycle were measured by flow cytometry (Accuri C6, BD biosciences).

Calu-6 = assay: Cell proliferation assay (MTT/MTS); conditions: Homo sapiens, Calu-6, read-out: IC50 ± SEM
Protocol: (§3) All cell lines were authenticated by short tandem repeat analysis and maintained following the ATCC instructions. […] Anti-proliferation activity was analyzed using the 3-(4,5-dimethylthiazole-2-yl)-2,5-diphenyl-2H-tetrazolium bromide (MTT) or (3-(4,5-dimethylthiazol-2-yl)-5-(3-carboxymethoxyphenyl)-2 -(4-sulfophenyl)-2H-tetrazolium) (MTS) assay.
(§4) Cells were seeded into 96-well plates at an appropriate density, and 24 h later, diluted drug in different concentrations was added to each test well in triplicate. The cell viability was tested 5 days (H358 was analyzed for 7 days) after the cells were plated according to the procedure originally described by Mosmann [1]. Survival rate was calculated using the formula: Survival rate = (Mean absorbance of experimental wells-Mean absorbance of DMSO wells) / (Mean absorbance of control wells-Mean absorbance of DMSO wells) × 100%. IC50 was determined from the regression of a plot of the logarithm of the concentration versus survival rate by GraphPad Prism 6 using the non-linear regression Dose–Response Inhibition (four parameters) Model.

MRC-5 = assay: Cell proliferation assay (MTT/MTS); conditions: Homo sapiens, MRC5, read-out: IC50 ± SEM
Protocol: as §3
(§5) A375, HT-29 and Calu-6 cell lines were purchased from the typical culture preservation commission cell bank of the Chinese Academy of Sciences in China. […] H358 cell line was obtained from EK-bioscience. Cells were seeded into 96-well plates at an appropriate density, and 24 h later, diluted drug in different concentrations was added to each test well in triplicate. The cell viability was tested 5 days (H358 was analyzed for 7 days) after the cells were plated according to the procedure originally described by Mosmann [1]. Survival rate was calculated using the formula: Survival rate = (Mean absorbance of experimental wells-Mean absorbance of DMSO wells) / (Mean absorbance of control wells-Mean absorbance of DMSO wells) × 100%. IC50 was determined from the regression of a plot of the logarithm of the concentration versus survival rate by GraphPad Prism 6 using the non-linear regression Dose–Response Inhibition (four parameters) Model.

HT-29 = assay: Cell proliferation assay (MTT/MTS); conditions: Homo sapiens, HT-29, read-out: IC50 ± SEM
Protocol: as §3, §4

A375 cells = assay: Apoptosis assay by flow cytometry; conditions: 48 h
Protocol: as §1, §2

A549 = assay: Cell proliferation assay (MTT/MTS); conditions: Homo sapiens, A549, read-out: IC50 ± SEM
Protocol: as §3, §4

H1975 = assay: Cell proliferation assay (MTT/MTS); conditions: Homo sapiens, NCI-H1975, read-out: IC50 ± SEM
Protocol: as §3, §5

A375 = assay: Cell proliferation assay (MTT/MTS); conditions: Homo sapiens, A-375, read-out: IC50 ± SEM
Protocol: as §3, §5

HL-60 = assay: Cell proliferation assay (MTT/MTS); conditions: Homo sapiens, HL-60, read-out: IC50 ± SEM
Protocol: as §3, §5

COLO 205 = assay: Cell proliferation assay (MTT/MTS); conditions: Homo sapiens, COLO 205, read-out: IC50 ± SEM
Protocol: as §3, §5

Colo-829 = assay: Cell proliferation assay (MTT/MTS); conditions: Homo sapiens, COLO-829, read-out: IC50 ± SEM
Protocol: as §3, §4

[1] = cited from earlier work
[2] = set-up: method as in Infante et al., 2012; conditions: requires DMSO as co-solvate; ref Infante et al., 2012; cited from earlier work
hERG channel = system: hERG channel; set-up: method as in Food and Drug Administration, 2015; conditions: ref Food and Drug Administration, 2015; cited from earlier work

MEK1/MAP2K1(h), sequence (Q02750 whole entry): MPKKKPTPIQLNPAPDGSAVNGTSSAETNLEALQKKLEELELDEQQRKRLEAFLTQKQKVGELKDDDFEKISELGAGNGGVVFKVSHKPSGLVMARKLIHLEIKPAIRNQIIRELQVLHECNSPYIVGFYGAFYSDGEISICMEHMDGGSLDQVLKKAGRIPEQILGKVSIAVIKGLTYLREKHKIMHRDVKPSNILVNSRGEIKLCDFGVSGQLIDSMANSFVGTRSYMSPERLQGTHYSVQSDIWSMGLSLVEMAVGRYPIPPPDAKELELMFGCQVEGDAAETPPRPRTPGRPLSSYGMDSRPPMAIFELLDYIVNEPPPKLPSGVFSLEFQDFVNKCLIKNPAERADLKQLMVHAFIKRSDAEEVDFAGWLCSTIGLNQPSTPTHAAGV

| Compound | IC50 (Calu-6) [nM] | IC50 (HT-29) [nM] | IC50 (A549) [nM] | IC50 (H1975) [nM] | IC50 (A375) [nM] | IC50 (HL-60) [nM] | IC50 (COLO 205) [nM] | IC50 (Colo-829) [nM] | IC50 (MRC-5) [nM] | apoptosis-inducing effect (A375 cells) | also measured |
| --- | --- | --- | --- | --- | --- | --- | --- | --- | --- | --- | --- |
| Cn1cnc2c(F)c(Nc3ccc(Br)cc3F)c(C(=O)NOCCO)cc21 [MEK162, binimetinib] | – | – | – | – | – | – | – | – | – | – | IC50 (MEK1/MAP2K1(h)): 224 ± 16.9 nM |
| COc1cc(F)c(F)c(Nc2ccc(I)cc2F)c1NS(=O)(=O)C1(C[C@H](O)CO)CC1 [REDA119] | – | – | – | – | – | – | – | – | – | – | IC50 (MEK2 kinase): 47 nM; IC50 (MEK1 kinase): 19 nM |
| O=C(c1ccc(F)c(F)c1Nc1ccc(I)cc1F)N1CC(O)([C@@H]2CCCCN2)C1 [Cobimetinib, cobimetinib] | – | – | – | – | – | – | – | – | – | – | IC50 (hERG channel): 500 nM |

More lines, main results first:

| IC50 (Calu-6) [nM] | IC50 (HT-29) [nM] | IC50 (A549) [nM] | IC50 (H1975) [nM] | IC50 (A375) [nM] | IC50 (HL-60) [nM] | IC50 (COLO 205) [nM] | IC50 (Colo-829) [nM] | Compound | IC50 (MRC-5) [nM] | apoptosis-inducing effect (A375 cells) | also measured |
| --- | --- | --- | --- | --- | --- | --- | --- | --- | --- | --- | --- |
| 2310 ± 204 | 175 ± 19.3 | 5730 ± 1030 | > 50000 | 67.52 ± 0.07 | 35.3 ± 20.9 | 54.3 ± 2.21 | 301 ± 88.8 | Cn1cnc2c(F)c(Nc3ccc(Br)cc3Cl)c(C(=O)NOCCO)cc21 [AZD6244, selumetinib] | > 50000 | no significant apoptosis-inducing effect | apoptosis rate (COLO 205 cells; 1 μM): 40.6% |
| 10.56 ± 0.07 | 1.45 ± 0.2 | 45.4 ± 4.76 | > 1000 | 0.74 ± 0.01 | 0.6 ± 0.28 | 0.74 ± 0.02 | 1.78 | CC(=O)Nc1cccc(-n2c(=O)n(C3CC3)c(=O)c3c(Nc4ccc(I)cc4F)n(C)c(=O)c(C)c32)c1 [GSK212, trametinib] | > 1000 | no significant apoptosis-inducing effect | apoptosis rate (COLO 205 cells; 20 nM): 47.0%; drug accumulation ([1]; ref Infante et al., 2012): ~6 fold; mean accumulation ratio (day15/day1) ([1]; repeat dose of 2 mg, ref Food and Drug Administration, 2013): ~6.0; solubility property [2]: poor solubility |
